# Test results from PMC3670929, “Zn(II)-Chlorido Complexes of Phytohormone Kinetin and Its Derivatives Modulate Expression of Inflammatory Mediators in THP-1 Cells” (PLoS ONE, 2013).
# Tested on: IL-1β
# Test: LPS-induced IL-1β secretion in THP-1 macrophage-like cells (ELISA)
# Format: cell-based, human
# Details: complexes 5 µM, prednisone 1 µM, 1 h pre-treatment, 24 h after LPS
# Description: To determine the influence of the tested complexes on the TNF-α and IL-1β secretions and MMPs activity, macrophage-like cells derived from the THP-1 cell line were used. The cells were cultivated as above, but were split into 24-well microtitre plates to get a concentration of 100 000 cells/mL (1 mL/well) and the differentiation to macrophages was induced by phorbol myristate acetate (PMA) as described previously. Differentiated macrophages were pre-treated for 1 h with 5 µM solutions of the tested complexes or 1 µM prednisone dissolved in DMSO [the final DMSO concentration was 0.1% (v/v)] and with the 0.1% (v/v) DMSO solution itself (the experimental group called vehicle); the given concentrations of the compounds lack the cytotoxic effect. The inflammatory response was triggered by adding 1 µg/mL Escherichia coli 0111:B4 lipopolysaccharide (LPS) (Sigma-Aldrich, Germany) dissolved in water to pre-treated macrophages, control cells were without the LPS treatment. Each experiment was performed in triplicate. Macrophages, which were pre-treated with the tested compounds for 1 h, were incubated with LPS for the next 24 h. Then, the medium was collected and the concentrations of TNF-α and IL-1β were measured by an Instant ELISA kit (eBioscience, Austria) according to the manufacturer’s manual.
smiles,measurement,value
"C[C@]12C=CC(=O)C=C1CC[C@@H]1[C@@H]2C(=O)C[C@@]2(C)[C@H]1CC[C@]2(O)C(=O)CO [prednisone, reference compound]","decrease of IL-1β secretion, factor in comparison with the vehicle-treated cells",2.42 times
